Results as given in paper PMC6511062, “Preclinical candidate for the treatment of visceral leishmaniasis that acts through proteasome inhibition” (Proceedings of the National Academy of Sciences of the …, 2019).
Values after ≈ are worked out from the molar mass of the structure shown. “Also recorded” adds a separate entry of the source. Like-named read-outs stand apart in the source and are kept apart here.

Legend:
[1] = tested on: L. donovani intramacrophage amastigotes; assay: L. donovani intramacrophage assay (amastigotes in differentiated THP-1 cells); type: cell-based, Leishmania donovani; details: Leishmania donovani
Procedure: (§1) T. cruzi4, Leishmania donovani axenic amastigote, cidal axenic amastigote and intra-
(§2) macrophage drug sensitivity assays were conducted as previously described5,6. […]
(§3) 5. Intrinsic clearance (CLint) […]
(§4) 6. Pharmacokinetic studies. […]

[2] = Intrinsic clearance in mouse liver microsomes; type: in vitro ADME
Procedure: page 13: 4. Parasite assays T. cruzi4, Leishmania donovani axenic amastigote, cidal axenic amastigote and intra- macrophage drug sensitivity assays were conducted as previously described5,6. a. […] Instead of a single readout at 72 h, multiple identical plates were used and read at different time points (24, 48, 72 h). Rate of kill curves showing the luminescence signal at each time point for each concentration were plotted. 5. […] The rate of intrinsic clearance (CLint) of each test compound was then calculated using the following calculation: CLint(mL/min/g liver) = k x V x Microsomal protein yield Where V (mL/mg protein) is the incubation volume/mg protein added and microsomal protein yield is taken as 52.5 mg protein/g liver. Verapamil (0.5 μM) was used as a positive control to confirm acceptable assay performance. 6. Pharmacokinetic studies. a. Mouse and dog PK Mouse pharmacokinetic studies were conducted in male CD-1 mice and male beagle dogs. 3 animals per group were used for each study performed. A dose of 3 mg/kg was administered intravenously, in a bolus form to mice and infused over a 30 min period to dogs. For all the intravenous studies compound were dissolved in 5% DMSO/20% kleptose in saline. A dose of 10 mg/kg was orally administered by gavage to the two species in a suspension of 1% methylcellulose to investigate oral pharmacokinetics. S13

[3] = CAD (charged aerosol detector) solubility
THP-1 cells = assay: Mammalian cell growth inhibition (THP-1); type: cell-based; details: Homo sapiens
Text: We hypothesized that, in view of their structural similarity, 1 and 2 probably shared the same mechanism of action.

Trypanosoma cruzi = assay: T. cruzi phenotypic screening assay; type: cell-based; details: phenotypic screen, read-out: EC50 against T. cruzi
Procedure: as §1, §2, §3, §4

[4] = Solubility in fasted simulated intestinal fluid (FaSSIF); details: fassif
[5] = tested on: Salmonella typhimurium TA1535, TA1537, TA98, TA100 and Escherichia coli WP2uvrA(pKM101); assay: Bacterial mutation screening assay (Ames test), overall outcome; type: cell-based; details: presence and absence of S9-mix
Procedure: i. Bacterial Mutation (Ames) Assay
Compound 6 was tested in a bacterial mutation screening assay (Ames test) with Salmonella typhimurium TA1535, TA1537, TA98, TA100 and Escherichia coli WP2uvrA(pKM101) in the presence and absence of an exogenous mammalian oxidative metabolism system (S9-mix). The maximum concentration tested and […]
Compound 6a was tested in a bacterial mutation screening assay (Ames test) with […]
Compound 7a was tested in a bacterial mutation screening assay (Ames test) with […]
The bacterial mutation screening assay was a plate incorporation test carried out as previously described15 and according to current methodology. […]

[6] = tested on: chymotrypsin-like activity of the L. donovani proteasome; assay: biochemical; parameters: species or system Leishmania donovani; details: lysates from RES II and WT parasites
Procedure: An in vitro assay was developed that enabled the chymotrypsin-like activity and additional proteolytic activities associated with the proteasome to be directly monitored within proteasome-enriched parasite cell lysates. Likewise, human proteasome from two sources (i.e., commercially pure 26S and enriched proteasome fractions from THP-1 lysates) was tested using the same biochemical assays.
Proteasome enrichment by ultracentrifugation
The protocol described by Kisselev et al.34 was adapted to enrich the proteasomes present in L. donovani and THP1 crude extracts. L. donovani or THP1 cells were resuspended in sucrose buffer (50 mM Tris buffer pH 7.5, 5 mM Magnesium chloride, 1 mM EDTA, 50 mM NaCl, 250 mM sucrose, 2 mM ATP, 1 mM DTT) and lysed by nitrogen cavitation for 15 min (110 bars of 1500 psi). Lysates were centrifuged at 20,000g for 30 min at 4 °C and supernatants containing soluble protein were subjected to an ultracentrifugation step at 300,000g for 2h at 4 °C. The resulting proteasome-containing pellets were resuspended in sucrose buffer and left on ice for 30 min to complete solubilization. Samples were centrifuged for 10 min at 20,000 g to remove insoluble material. Proteins contained in supernatant (proteasome enriched fraction) were measured by Bradford.
Proteasome activity assays
Compounds were dispensed into black 384-well assay plates (Greiner) by acoustic dispensing (LabCyte ECHO). For potency determinations, eleven-point, one in three dilution curves were generated, with a top concentration of 100 µM. Three proteasome activities were measured using a commercially available indirect enzyme-based luminescent assay kit (Promega) with Suc-LLVY-aminoluciferin, Z-LRR-aminoluciferin and Z-nLPnLD-aminoluciferin used as substrates for chymotrypsin-like, trypsin-like and caspase-like activities, respectively. In addition to proteasome samples: L. donovani and THP1-enriched proteasomes, commercially available human purified 26S proteasome (Boston Biochem) was also assessed.

[7] = tested on: L. donovani proteasome β subunits; assay: Activity-based probe (UbiQ-018) labelling of L. donovani proteasome; type: binding, Leishmania donovani; details: 100 µM
Procedure: m. Activity-Based Probe Labelling of THP1 and L. donovani proteasome
Proteasome enriched fractions from THP1 (20 µg), L. donovani (10 µg) and L. donovani […]
µM for 1 h. Proteasome enriched fractions were also incubated with DMSO as control.
For all proteasome labelling experiments, the active-site probe Me4BodipyFL-Ahx3Leu3VS (UbiQ-018) was used at final concentration of 500 nM in sucrose buffer (50 mM Tris buffer pH 7.5, 5 mM magnesium chloride, 1 mM EDTA, 50 mM NaCl, 250 mM sucrose, 2 mM ATP, 1 mM DTT). Proteasome enriched fractions treated with […]
DMSO or test compounds, were incubated with the probe for 2h at RT. Samples were then denatured by addition of Laemmli sample buffer, heated to 95°C for 10 min and separated by electrophoresis on a 15% SDS-PAGE acrylamide gel. Following separation, gels were scanned in the fluorescein channel of a ChemiDoc reader (λ excitation/emission = 480/530 nm). Fluorescent proteins were excised and MALDI– TOF analysis carried out by the FingerPrints Proteomics service at the University of […]
10. Measuring Proteolytic activity of Leishmania tarentolae Proteasome […]
pre-prepared as a 10 mM stocks in 100 % DMSO and then diluted 1 in 3, over 11 points, prior to dispense of 100 nl of each dilution series into black, low volume, 384-well microplates. Proteasome was prepared as a 0.5 µg/mL working solution in assay buffer (50 mM HEPES (pH 7.5), 150 mM NaCl, 5 mM MgCl2, 5% glycerol, 1 mM CHAPS) and 5 µL was added using a Multidrop Micro (Thermo Fisher Scientific) to all wells containing compound dilutions on the test microplates. The microplates were then centrifuged for 1 min at 1000 rpm and incubated for 15 mins at 25 °C, prior to an assay initiating addition of 5 µl of fluorogenic substrate, which had been prepared as a 1 µM […]
The assay microplates were then centrifuged for 10 secs before using a Tecan M1000 Pro to monitor the increase of fluorescent intensity at 25 °C by excitation of the liberated Rhodamine110 at 485 nm and emission at 535 nm every 125 secs for 20 cycles. […]
calculate initial rates of reactions for all assay wells on the microplate by fitting to a linear regression model. The initial rates of reaction for all compound concentrations tested were normalised to the initial rates determined for 16 replicate control wells per microplate of both uninhibited reaction and no-proteasome background, and subsequently, IC50 values were determined by fitting the normalised data to the following four-parameter logistic model; y = a + (( b – a) / ( 1 + ( 10 ^ x / 10 ^ c ) ^ d ), where ‘a’ is the minimum, ‘b’ is […], ‘c’ is the IC50 and ‘d’ is […].
11. Cryo-EM of 20S Leishmania tarentolae proteasome a. Purification of 20S Leishmania tarentolae proteasome. […]

[8] = tested on: human proteasome catalytic subunits (THP-1 extracts); assay: Activity-based probe (UbiQ-018) labelling of THP-1 proteasome; type: binding; details: human THP-1 extracts, 100 µM
[9] = tested on: L. donovani promastigotes; assay: microbe, parasite or virus in culture; type: cell-based, Leishmania donovani; details: Leishmania donovani
Procedure: 9. Mode of action studies a. Cell lines and culture conditions […]
c. Generation of drug-resistant parasites […]
donovani in the continuous presence of this compound. Starting at a sub-lethal […]
After a total of 120 days in
Genomic DNA was harvested from three independently generated L. donovani resistant clones and an age match control, as previously described27. PCR was performed using Platinum PCR Supermix (Invitrogen), as per manufacturer’s […]
generated using primers SubunitB4FW and SubunitB4RV, then sequenced using primer SubunitB4FW (Table S6). To sequence the β5 subunit (LdBPK_361730.1), an […]
sequenced using primer SubunitB5FW. PCR amplification and DNA sequencing were performed in triplicate for each independently generated cell line. The Leishmania donovani BPK282A1 sequences of the two subunits were identified in TriTrypDB and […]
e. Generation of overexpression constructs and LdBOB transgenic cell lines The genes encoding the mutated versions of the β4 (LdBPK_360340.1) and the β5 […]
parasites, were synthesised (GeneArt, Thermo Fischer Scientific). The synthetic genes, flanked by BamHI sites were cloned into the equivalent site of pIR1-SAT. The accuracy of all assembled constructs was verified by sequencing.
Mid-log-phase L. donovani promastigotes (LdBOB) were transfected with overexpression constructs using the Human T-Cell Nucleofector kit and the Amaxa Nucleofector electroporator (program V-033). Following transfection, cells were […]
to appropriate drug selection (100 µg/mL nourseothricin). Cloned cell lines were […]
selection for one passage prior to experiments. […]

L. donovani (LV9) [10] = assay: Mouse model of VL (in vivo efficacy in female Balb/C mice); parameters: species or system Leishmania donovani; details: 30 mg/kg u.i.d. (10 days PO)
Procedure: Infected mice were dosed at 3, 10, or 25 mg/kg orally twice a day for 10 consecutive days. Two days after the termination of treatment, mice were euthanized, and the parasite burdens in their livers were determined.
Peripheral blood samples were obtained at 5, 15, 30 min, 1, 2, 4, 6 ,8 and 24 h after intravenous administration and 15, 30, 45 min,1, 2, 4, 6, 8 and 24 h after oral administration. Blood was 1/2 diluted with milliQ water and immediately frozen on dry ice until analysis. Quantification was performed by means of LC-MS/MS (API4000), with a lower limit of quantification of 1 ng/mL. […]
Data analysis and calculation of pharmacokinetic parameters was performed using Phoenix, WinNonLin Version 6.3. […]
For both intravenous and oral administration, the systemic exposures were determined by calculating the area under the blood concentration time curve (AUC) from the start of dosing to the last observed quantifiable concentration (AUC0-t) by using the linear up-log down trapezoidal rule. The slope of the terminal elimination phase was estimated by linear regression of the terminal data points (minimum 3 points) from a natural log concentration versus time plot of the data. The half-life (t1/2) of the terminal elimination phase was calculated as t1/2 = 0.693/λ.
7. In vivo efficacy in female Balb/C mice
To establish infection in mice, sodium stibogluconate-sensitive L. donovani (LV9, WHO designation: MHOM/ET/67/HU3) amastigotes were isolated from the spleen of a heavily infected donor hamster (Janvier, France)7. An inoculum containing 1.0 x 10^8 amastigotes/mL in Dulbecco’s modified eagles medium (high glucose) was prepared […]
and female BalbC mice (Harlan, UK) then infected intravenously via the tail vein with a 0.2 mL bolus (equivalent to ~2.0 x 10^7 amastigotes). Infection was left to establish for […]
daily orally as a suspension in 0.5% hydroxypropylmethylcellulose, 0.4% tween 80 and 0.5% benzyl alcohol. With twice daily regimens, the second daily dose was administered approximately 8 h following the first dose. Dose regimens evaluated were:
1. 50 mg/kg twice daily for 5 days
2. 25 mg/kg, 10 mg/kg and 3 mg/kg twice daily for 10 days
3. 25 mg/kg once daily for 10 days
Miltefosine, as the only oral treatment for visceral leishmaniasis, was used as a […]

L. donovani (LV9) [11] = tested on: L. donovani (LV9); parameters: method as in PMID 11353640; details: similar mouse model, once daily; cited from earlier work
[12] = L. donovani amastigotes in differentiated THP-1 cells, read-out: Intramacrophage EC50

O=C(Nc1cccc(-c2nc3ncccc3o2)c1)c1ccco1 [Compound 1]
EC50 [1, 12]: 5700 nM | CLint [2]: 24 mL/min/g | solubility [3]: 58 µg/mL (≈ 190 µM) | EC50 (THP-1 cells): > 50000 nM | EC50 (Trypanosoma cruzi): 220 nM

O=C(Nc1cccc(-c2cn3cccnc3n2)c1)c1ccco1 [Compound 2]
EC50 [1, 12]: 26000 nM | CLint [2]: 8.5 mL/min/g | solubility [3]: ≥ 162 µg/mL | EC50 (THP-1 cells): > 50000 nM | EC50 (Trypanosoma cruzi): 930 nM

O=C(Nc1ccc(F)c(-c2cn3nc(N4CCOCC4)cnc3n2)c1)N1CCCC1 [Compound 7a]
EC50 ([1]; THP-1, read-out: Intramacrophage EC50): 410 nM | solubility (physchem): 24 µg/mL (≈ 58.3 µM) | solubility [4]: 13 µg/mL (≈ 31.6 µM) | CLint [2]: 0.91 mL/min/g | AMES [5]: not mutagenic; also recorded: negative | EC50 (THP-1 cells): > 50000 nM

CC(C)C[C@H](NC(=O)[C@H](Cc1ccccc1)NC(=O)c1cnccn1)B(O)O [bortezomib, reference compound]
inhibition of chymotrypsin-like activity, RES II vs WT lysates [6]: equal potency | UbiQ-018 labelling of proteasome subunits ([7]; L. donovani WT extracts): prevents labeling of proteasome subunits in all extracts | UbiQ-018 labelling of proteasome subunits ([7]; L. donovani-resistant RES II extracts): prevents labeling of proteasome subunits in all extracts | UbiQ-018 labelling of proteasome subunits [8]: prevents labeling of proteasome subunits in all extracts | EC50 ([9]; RES I (compound 7-resistant clone)): 28 ± 1.4 nM | EC50 ([9]; RES III (compound 7-resistant clone)): 32 ± 1.5 nM | EC50 ([9]; WT promastigotes): 31 ± 1.5 nM

CCCCCCCCCCCCCCCCOP(=O)([O-])OCC[N+](C)(C)C [miltefosine, reference compound]
Reduction in parasite burden (compared to the vehicle control group) (L. donovani (LV9) [10]): 99.9% | ED90 (L. donovani (LV9) [11]): 27 mg/kg
